This passage reports inhibition results from ChEMBL document CHEMBL1221215, “A domino effect in antifolate drug action in Escherichia coli” (Nat Chem Biol, 2008).

This assay deals with T1, Dihydrofolate synthase/folylpolyglutamate synthase (Escherichia coli (strain K12)) (UniProt P08192).
T1 sequence (whole entry): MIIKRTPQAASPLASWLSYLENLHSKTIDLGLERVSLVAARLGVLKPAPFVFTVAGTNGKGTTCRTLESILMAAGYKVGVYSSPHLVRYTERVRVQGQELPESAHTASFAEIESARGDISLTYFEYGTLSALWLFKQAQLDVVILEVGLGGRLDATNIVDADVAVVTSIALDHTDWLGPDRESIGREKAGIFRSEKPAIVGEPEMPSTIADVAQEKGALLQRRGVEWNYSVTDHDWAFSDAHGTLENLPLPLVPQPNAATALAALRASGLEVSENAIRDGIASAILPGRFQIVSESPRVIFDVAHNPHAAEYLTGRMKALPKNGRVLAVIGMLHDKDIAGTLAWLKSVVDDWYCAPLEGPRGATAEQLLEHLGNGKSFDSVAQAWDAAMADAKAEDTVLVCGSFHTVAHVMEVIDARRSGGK
Put plainly: Inhibition of Escherichia coli K-12 recombinant His-tagged folylpoly-gamma-glutamate synthetase expressed in Escherichia coli BL21 at 200 uM LC-MS/MS method. The note with it: NCM3722.

Molecules are shown by their SMILES. Activity calls are given as the source filed them. The rule behind the calls is not given here.

Turning to `COc1cc(Cc2cnc(N)nc2N)cc(OC)c1OC`, the inhibition result is “inactive”.
Regarding `Nc1nc(=O)c2c([nH]1)NCC(CNc1ccc(C(=O)N[C@@H](CCC(=O)O)C(=O)O)cc1)=N2`, the inhibition entry was “Active”.
Regarding `Nc1nc(=O)c2nc(CNc3ccc(C(=O)N[C@@H](CCC(=O)O)C(=O)O)cc3)cnc2[nH]1`, the inhibition entry was “inactive”.
In the case of `CN1c2c([nH]c(N)nc2=O)NCC1CNc1ccc(C(=O)N[C@@H](CCC(=O)O)C(=O)O)cc1` (some centres undefined), the inhibition entry was “inactive”.
